Tests used:
Experiment in all cases: AUC of viability dose-response curve (% viability x log10 dose units); higher = less sensitive
Conditions in all cases: 48 h
[1] = system: NOMO1
Procedure, shortened: (§1)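 Medium-adapted leukemia cells in 1536-well plates, at 500 or 1000 cells/well, were incubated for 48 h at 37°C with library compounds in DMSO at 11 threefold doses from 47 μM to 0.79 nM. CellTiter-Glo One luminescence normalised per plate to DMSO and cell-free wells was fitted with a four-parameter log-logistic model over log10 doses. Area under the curve was integrated from this fit by trapezoidal rule, with curves beyond full viability scaled and failed quality-control curves removed.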

[2] = system: SEM cells
Procedure, shortened: as §1

[3] = system: P12-Ichikawa
Procedure, shortened: as §1

[4] = RPMI 5 mM glucose + 10% dialyzed FBS

| SMILES | AUC of viability dose-response curve ([1]; HPLM + 10% dialyzed FBS) | AUC of viability dose-response curve ([1]; RPMI 5 mM glucose + 10% FBS) | AUC of viability dose-response curve [1, 4] | AUC of viability dose-response curve ([2]; HPLM + 10% dialyzed FBS) | AUC of viability dose-response curve ([2]; RPMI 5 mM glucose + 10% FBS) | AUC of viability dose-response curve [2, 4] | AUC of viability dose-response curve ([3]; HPLM + 10% dialyzed FBS) | AUC of viability dose-response curve ([3]; RPMI 5 mM glucose + 10% FBS) | AUC of viability dose-response curve [3, 4] |
| --- | --- | --- | --- | --- | --- | --- | --- | --- | --- |
| COc1ccc(-c2ccc3c(N4CCOC[C@@H]4C)nc(N4CCOC[C@@H]4C)nc3n2)cc1CO | 293 | 359 | 337 | 310 | 310 | 316 | 353 | 296 | 311 |
| Cc1cnc(-c2cc(N3CCN(C(=O)CC[S+](C)(=O)[O-])CC3)ncc2Cl)c(C)c1 | 404 | 470 | 455 | 426 | 453 | 427 | 466 | 475 | 469 |
| O=C(NC[C@H](O)CO)c1ccncc1Nc1ccc(I)cc1F | 328 | 290 | 309 | 426 | 376 | 378 | 467 | 437 | 464 |
| C[C@]1(c2nc3c(C(N)=O)cccc3[nH]2)CCCN1 | 368 | 349 | 374 | 372 | 393 | 352 | 399 | 353 | 356 |
| CN1CCN(c2ccc([N+](=O)[O-])c3no[n+]([O-])c23)CC1 | 457 | 432 | 421 | 418 | 464 | 424 | 435 | 437 | 436 |
| NC/1=N/C2=C([NH]C=N2)C(=S)N1 | 457 | 451 | 402 | 458 | 457 | 345 | 441 | 433 | 409 |
| Cc1cc2c(F)c(Oc3ncnn4cc(OC[C@@H](C)O)c(C)c34)ccc2[nH]1 | 459 | 453 | 446 | 394 | 372 | 380 | 442 | 454 | 448 |
| Cc1cccc(Nc2nc(-c3ccncc3)cs2)c1 | 442 | 466 | 473 | 466 | 464 | 454 | 470 | 469 | 465 |
| C[C@@]12C[C@@]3(O)O[C@@H](O1)[C@]1(COC(=O)c4ccccc4)[C@H]3C[C@@]12O[C@@H]1O[C@H](CO)[C@@H](O)[C@H](O)[C@H]1O | 436 | 463 | 463 | 456 | 454 | 463 | 469 | 467 | 469 |
| CC(C)C[C@@H](C=O)NC(=O)[C@H](CC(C)C)NC(=O)[C@H](CC(C)C)NC(=O)OCc1ccccc1 | 337 | 312 | 351 | 305 | 279 | 315 | 364 | 324 | 361 |
| C=C(C)[C@H]1Cc2c(ccc3c2O[C@@H]2COc4cc(OC)c(OC)cc4[C@@H]2C3=O)O1 | 389 | 399 | 413 | 370 | 337 | 379 | 376 | 335 | 366 |
| CC(C)C1=C(O)C=C(O)C(=C1)C/2=N/NC(=O)N2C3=CC4=C(C=C3)[N](C)C=C4 | 259 | 254 | 250 | 248 | 241 | 259 | 335 | 304 | 307 |
| O=c1[nH]c2ccccc2n1C1CCN(Cc2ccc(-c3nc4cc5nc[nH]c5cc4nc3-c3ccccc3)cc2)CC1 | 439 | 463 | 474 | – | – | – | 457 | 460 | 443 |
| CN(C)C1=CC=C(C=C1)C(C2=CC=C(C=C2)N(C)C)=C/3\C=C/C(/C=C3)=[N+](C)C | 225 | 232 | 234 | 226 | 218 | 211 | 253 | 233 | 240 |
| OC1=CC2=C(C(=C1)O)C(=O)\C=C(/O2)C3=CC=CC=C3 | 450 | 453 | 456 | 429 | 410 | 423 | 441 | 443 | 446 |
| C/C=C(/C)C(=O)O[C@H]1C(C)=C[C@]23C(=O)[C@@H](C=C(CO)[C@@H](O)[C@]12O)[C@H]1[C@@H](C[C@H]3C)C1(C)C | 324 | 336 | 314 | 392 | 349 | 431 | 397 | 336 | 361 |
| CCC(C)(Oc1ccc(C2(c3ccc(OC(C)(CC)C(=O)O)cc3)CCCCC2)cc1)C(=O)O (centres undefined) | 475 | 456 | 469 | 471 | 454 | 472 | 458 | 459 | 426 |
| CCn1c(-c2nonc2N)nc2cnc(Oc3cccc(NC(=O)c4ccc(OCCN5CCOCC5)cc4)c3)cc21 | 456 | 432 | 429 | 457 | 442 | 456 | 446 | 427 | 438 |
| CC(C)C(=O)Nc1ccc([N+](=O)[O-])c(C(F)(F)F)c1 | 332 | 309 | 320 | 453 | 472 | 461 | 350 | 360 | 378 |
| CCOC(=O)\C1=C(/C)N\C2=C(C1C3=CC=C(C=C3)C4=CC=CC=C4)\C(=O)CC(C)(C)C2 (centres undefined) | 438 | 465 | 447 | 461 | 451 | 450 | 457 | 457 | 444 |
| Cn1c(CNc2ccc(C(=N)N)cc2)nc2cc(C(=O)N(CCC(=O)O)c3ccccn3)ccc21 | 441 | 443 | 440 | 424 | 469 | 451 | 448 | 472 | 465 |
| C[S+]([O-])(=O)C1=CC=C(C=C1)C/2=C(/C(=O)OC2)C3=CC=CC=C3 | 465 | 463 | 445 | 466 | 431 | 453 | 468 | 449 | 472 |
| COc1cc(OC)c(/C=C/[S+](=O)([O-])Cc2ccc(OC)c(NCC(=O)[O][Na])c2)c(OC)c1 | 315 | 309 | 278 | 287 | 269 | 249 | 271 | 269 | 257 |
| CNc1nccc(-c2cccnc2Oc2cc(C(=O)Nc3cccc(C(F)(F)F)c3)ccc2C)n1 | 458 | 458 | 461 | 466 | 460 | 461 | 467 | 462 | 468 |

| SMILES | AUC of viability dose-response curve ([1]; HPLM + 10% dialyzed FBS) | AUC of viability dose-response curve ([1]; RPMI 5 mM glucose + 10% FBS) | AUC of viability dose-response curve [1, 4] | AUC of viability dose-response curve ([2]; HPLM + 10% dialyzed FBS) | AUC of viability dose-response curve ([2]; RPMI 5 mM glucose + 10% FBS) | AUC of viability dose-response curve [2, 4] | AUC of viability dose-response curve ([3]; HPLM + 10% dialyzed FBS) | AUC of viability dose-response curve ([3]; RPMI 5 mM glucose + 10% FBS) | AUC of viability dose-response curve [3, 4] |
| --- | --- | --- | --- | --- | --- | --- | --- | --- | --- |
| OC1CCC(Nc2ncc3nc(Nc4c(F)cc(F)cc4F)n([C@@H]4CCOC4)c3n2)CC1 (some centres undefined) | 465 | 446 | 448 | 474 | 452 | 458 | 468 | 465 | 468 |
| COc1ccc(-c2nc(N3CCOCC3)c3sc(CN(C)c4ncc(C(=O)NO)cn4)cc3n2)cn1 | 156 | 169 | 166 | 136 | 113 | 144 | 163 | 162 | 172 |
| CC(C)(C)c1[nH]cnc1/C=c1\[nH]c(=O)/c(=C/c2ccccc2)[nH]c1=O | 200 | 129 | 160 | – | – | – | – | – | – |
| Cc1ccc([S+](=O)([O-])N[C@@H](Cc2ccccc2)C(=O)CCl)cc1 | 463 | 434 | 450 | 427 | 429 | 420 | – | – | – |
| O=C(Nc1cc2cc[nH]c2cn1)c1ccccc1 | 366 | 385 | 401 | 359 | 335 | 364 | 360 | 414 | 386 |
| COc1ccc(C2CNC(=O)C2)cc1OC1CCCC1 (centres undefined) | 465 | 460 | 465 | 455 | 453 | 448 | 470 | 472 | 450 |
| CCC(C)(C)c1ccc(CC(C)CN2C[C@@H](C)O[C@@H](C)C2)cc1 (some centres undefined) | 422 | 368 | 397 | 356 | 369 | 398 | 424 | 417 | 380 |
| CC(C)NC[C@@H](C(=O)N1CCN(c2ncnc3c2[C@H](C)C[C@H]3O)CC1)c1ccc(Cl)cc1 | 411 | 444 | 419 | 257 | 251 | 249 | 367 | 350 | 362 |
| COc1cc2ncnc(Nc3ccc(F)c(Cl)c3)c2cc1NC(=O)/C=C/CN1CCCCC1 | 408 | 426 | 418 | 417 | 415 | 416 | 433 | 444 | 436 |
| CCN1\C=C(\C(O)=O)C(=O)C2=CC=C(C)N=C12 | – | – | – | 397 | 425 | 410 | 466 | 426 | 427 |
| Nc1ncnc2c1c(-c1cnc3[nH]ccc3c1)nn2C1CCCC1 | 364 | 388 | 397 | 356 | 306 | 360 | 379 | 343 | 326 |
| CC(C)C(=O)Oc1ccc(CO)cc1[C@H](CCN(C(C)C)C(C)C)c1ccccc1 | – | – | – | 376 | 402 | 433 | 405 | 398 | 381 |
| O=C(Nc1ccc(F)c(C(F)(F)F)c1)Nc1nnc(-c2ccncc2)s1 | 456 | 444 | 466 | 467 | 464 | 467 | 469 | 451 | 465 |
| CC(C)=CC[C@@H](O)C/1=C/C(=O)C2=C(O)C=CC(=C2C1=O)O | 379 | 354 | 368 | 449 | 407 | 431 | 413 | 415 | 434 |
| Nc1nc(N)c2nc(CNc3ccc(C(=O)NC(CCC(=O)O)C(=O)O)cc3)cnc2n1 (centres undefined) | 344 | 414 | 286 | 290 | 394 | 247 | 283 | 313 | 272 |
| N[C@H](CSC(c1ccccc1)(c1ccccc1)c1ccccc1)C(=O)O | 470 | 466 | 465 | – | – | – | 472 | 437 | 470 |
| C[S+](=O)([O-])N1CCc2c(-c3cnc(N)nc3)nc(N3CCOCC3)nc21 | 418 | 442 | 404 | – | – | – | 457 | 431 | 440 |
| O=C1c2c(O)ccc(O)c2C(=O)c2c(NCCNCCO)ccc(NCCNCCO)c21 | – | – | – | 251 | 261 | 261 | 286 | 280 | 296 |
| COc1ncc(-c2ccc3nccc(-c4ccnnc4)c3c2)cc1N[S+](=O)([O-])c1ccc(F)cc1F | 303 | 279 | 297 | – | – | – | 354 | 266 | 310 |
| CNC(=O)c1ccc(N2C(=S)N(c3ccc(C#N)c(C(F)(F)F)c3)C(=O)C23CCC3)cc1F | – | – | – | 425 | 408 | 411 | – | – | – |
| C[C@]12CCC(=O)C=C1CC[C@@H]1[C@@H]2CC[C@@]2(C)[C@H]1CC[C@]2(C)O | 440 | 430 | 453 | – | – | – | 465 | 458 | 452 |
| Cc1cn([C@@H]2O[C@H](CO)[C@@H](O)[C@@H]2F)c(=O)[nH]c1=O | 456 | 460 | 458 | 467 | 437 | 469 | – | – | – |
| CC(C)C[C@H](NC(=O)[C@H](CCc1ccccc1)NC(=O)CN1CCOCC1)C(=O)N[C@@H](Cc1ccccc1)C(=O)N[C@@H](CC(C)C)C(=O)[C@@]1(C)CO1 | 177 | 152 | 169 | – | – | – | 162 | 139 | 140 |
| CNC[C@H](O)c1ccc(O)c(O)c1 | 425 | 402 | 408 | – | – | – | 446 | 448 | 412 |

— the supplement of paper PMC11451515
